Experimental findings from US20080255090A1, “Ceratamines A and B, and Analogues, Syntheses and Pharmaceutical Compositions Thereof” (THE UNIVERSITY OF BRITISH COLUMBIA, priority 2003, published 2008) are described below.

In brackets after ≈: the same amount, converted by molar mass.

The subject of this assay is mitotic arrest. In words: cell-based ELICA assay that detects mitotic arrest (Roberge et al. 2000). To be noted: cell-based ELICA assay of Roberge et al. (2000) Cancer Res. 60:5052. The source says: As part of a program to discover new antimitotic natural products, extracts of marine invertebrates are screened in a cell-based assay that detects mitotic arrest (Roberge, M. et al. (2000) Cancer Res. 60:5052). […] The compounds described below, their salts, prodrugs and pharmaceutical compositions thereof are all contemplated within the scope of this invention.
Methods suitable for assaying antimitotic activity of compounds of this invention or compounds used as precursors, may be based on any of a variety of known methodologies including microscopic examination of cells to determine if they are arrested in mitosis. Particularly useful methods employ antibodies specific for mitotic cells, such as the method described in the international patent application published under WO 99/15157 or the assays described in WO 01/38339 and in Roberge et al. (2000) Cancer Res. 60:5052. Assays will typically employ cells which regularly divide in culture (e.g. cancer cells). […]
Immunological methods useful for determination of mitotic cells in an assay include any method for determining antibody-antigen binding, including: immunocytochemistry (e.g. immunofluorescence), flow cytometry, immunoblotting, and ELISA, including those described in Vincent, I. et al. [supra]. High throughput testing of samples may be readily achieved by use of the ELISA or the ELICA assays described in WO 01/38339. […]

Consider `CNc1nc2ccn(C)c(=O)c(Cc3cc(Br)c(OC)c(Br)c3)c-2n1` [Heterocycle 1, ceratamine A], for which the concentration for half-maximal inhibition (IC50) (in general, the midpoint of a concentration-inhibition curve) (read-out: IC50, antimitotic activity in the cell-based ELICA assay) is 10 µg/mL (≈ 21.4 µM). With ceratamine B [Heterocycle 2], the “IC50, antimitotic activity in the cell-based ELICA assay” value came to 10 µg/mL.
